Test results taken from patent publication US7754696B2 (Pharmaceutical Solutions, Inc., priority 2001, dated 2010).

Key:
[1] = cited from earlier work
[2] = test system: round worms; experiment: Treatment of a poultry flock via drinking water, round worms; type: in vivo; conditions: 10000 head flock, 5 percent concentration mixture in water, administered over 12 hours, 180 ug per kg
Description: (§1) 400 cc of a 5 percent concentration mixture was added to 5 gallons of water to form a stock solution that was administered over 12 hours at a dose of 180 ug per kg.

[3] = test system: foul mites; experiment: Treatment of a poultry flock via drinking water, mites; type: in vivo; conditions: 10000 head flock, 5 percent concentration mixture in water, administered over 12 hours, 180 ug per kg
Description: as §1

[4] = test system: round worms; experiment: Treatment of swine via drinking water, fecal examinations pre and post treatment; type: in vivo; conditions: 1000 100-pound pigs, 5 percent solution in 10 gallons of water stock solution
Description: This is 20 mg per 100 pounds or 200 ug per pound.

[5] = room temperature; cited from earlier work
[6] = cited from earlier work; remark: listed apart in the source

In the case of `CC[C@H](C)[C@H]1O[C@]2(CC[C@@H]1C)C[C@@H]1C[C@@H](C/C=C(\C)C(O[C@H]3C[C@H](OC)[C@@H](O[C@H]4C[C@H](OC)[C@@H](O)[C@H](C)O4)[C@H](C)O3)[C@@H](C)/C=C/C=C3\CO[C@@H]4[C@H](O)C(C)=C[C@@H](C(=O)O1)[C@]34O)O2` (stereo partly drawn) [Ivermectin, 22,23 dihydroavermectin Bla], the “bound to plasma proteins” value [1] is listed as “about 93%”, the “elimination of worms from the birds” value [2] is listed as 100% and the “elimination of mites from the birds” value [3] is listed as 100%. For the same compound, the “reduction in round worms based on fecal examinations” value [4] was 98%, the solubility in water [5] was “about 0.005 mg per ml” and the “apparent volume of distribution” value ([6]; adults) was “about 47 liters”. For the same compound, the systemic clearance ([6]; adults) was “about 1.2 liters/hour”, the terminal half-life ([6]; adults) was “about 27 hours” and the “time to peak levels in plasma” value ([6]; human beings, oral administration) was ≤ 4 h.
